Values quoted from earlier work, collected in US20080069870A1, “Controlled Release Compositions Comprising a Cephalosporin for the Treatment of a Bacterial Infection” (Elan Corporation Pic, priority 2005, published 2008).
Read-outs that look alike come from different tables or passages of the source.

How the values were obtained:
[1] = oral administration, after meals vs before meals

- solubility (in N, N-dimethylformamide): freely soluble
- solubility (in diethyl ether): practically insoluble
- solubility (in ethanol): sparingly soluble
- solubility (in methanol): freely soluble
- solubility (in water): only slightly soluble
- absorption [1]: better after meals than before meals
Structure (SMILES): CC/C=C(\C(=O)N[C@@H]1C(=O)N2C(C(=O)OCOC(=O)C(C)(C)C)=C(COC(N)=O)CS[C@H]12)c1csc(N)n1.Cl [CFPN-PI, 2,2-Dimethylpropanoyloxymethyl (6R, 7R)-7-[(Z)-2-(2-aminothiazol-4-yl)pent-2-enylamino]-3-carabmoyloxymethyl-8-oxo-5-thia-1-azabicyclo[4.2.0]oct-2-ene-2-carboxylate monohydrochoride monohydrate]
